Reference: ChEMBL document CHEMBL4130560, “Discovery of Indolinone-Based Multikinase Inhibitors as Potential Therapeutics for Idiopathic Pulmonary Fibrosis” (ACS Med Chem Lett, 2017)

Key:
[1] = target: Platelet-derived growth factor receptor beta (Homo sapiens, UniProt P09619); test: Inhibition of recombinant PDGFRbeta (unknown origin) by off-chip mobility shift assay
[2] = target: Voltage-gated inwardly rectifying potassium channel KCNH2 (Homo sapiens, UniProt Q12809)
Mus musculus [3] = test: Toxicity in C57 mouse assessed as lethality at 5 mg/kg, iv after 28 days; format: organism-based; conditions: in vivo, 672 h
[4] = Half life in CD1 mouse at 50 mg/kg, iv by UFLC-MS/MS analysis; format: ADME, organism-based; conditions: in vivo
[5] = Half life in Sprague-Dawley rat at 10 mg/kg, iv by UFLC-MS/MS analysis; format: ADME, organism-based; conditions: in vivo
[6] = Half life in Beagle dog […] at 20 mg/kg, iv by UFLC-MS/MS analysis; format: ADME, organism-based, Canis lupus familiaris; conditions: in vivo
[7] = AUC in CD1 mouse at 50 mg/kg, iv by UFLC-MS/MS analysis; format: ADME, organism-based; conditions: in vivo
[8] = AUC in Sprague-Dawley rat at 10 mg/kg, iv by UFLC-MS/MS analysis; format: ADME, organism-based; conditions: in vivo
[9] = AUC in Beagle dog […] at 20 mg/kg, iv by UFLC-MS/MS analysis; format: ADME, organism-based, Canis lupus familiaris; conditions: in vivo
[10] = Oral bioavailability in CD1 mouse at 50 mg/kg administered via gavage by UFLC-MS/MS analysis; format: ADME, organism-based; conditions: in vivo
[11] = Oral bioavailability in Sprague-Dawley rat at 10 mg/kg administered via gavage by UFLC-MS/MS analysis; format: ADME, organism-based; conditions: in vivo
[12] = Oral bioavailability in Beagle dog […] at 20 mg/kg administered via gavage by UFLC-MS/MS analysis; format: ADME, organism-based, Canis lupus familiaris; conditions: in vivo
Mus musculus [13] = test: Antifibrotic activity in BLM-induced chronic pulmonary fibrosis C57 mouse model assessed as increase in survival rate administered qd measured up to 28 days; format: functional, organism-based
[14] = target: Mast/stem cell growth factor receptor Kit (Homo sapiens, UniProt P10721); test: Inhibition of recombinant c-KIT (unknown origin) by off-chip mobility shift assay
Mus musculus [15] = test: Toxicity in C57 mouse at 10 to 100 mg/kg, po administered qd measured up to 28 days; format: organism-based; conditions: in vivo, 672 h

Sequence of Voltage-gated inwardly rectifying potassium channel KCNH2 (Q12809 whole entry): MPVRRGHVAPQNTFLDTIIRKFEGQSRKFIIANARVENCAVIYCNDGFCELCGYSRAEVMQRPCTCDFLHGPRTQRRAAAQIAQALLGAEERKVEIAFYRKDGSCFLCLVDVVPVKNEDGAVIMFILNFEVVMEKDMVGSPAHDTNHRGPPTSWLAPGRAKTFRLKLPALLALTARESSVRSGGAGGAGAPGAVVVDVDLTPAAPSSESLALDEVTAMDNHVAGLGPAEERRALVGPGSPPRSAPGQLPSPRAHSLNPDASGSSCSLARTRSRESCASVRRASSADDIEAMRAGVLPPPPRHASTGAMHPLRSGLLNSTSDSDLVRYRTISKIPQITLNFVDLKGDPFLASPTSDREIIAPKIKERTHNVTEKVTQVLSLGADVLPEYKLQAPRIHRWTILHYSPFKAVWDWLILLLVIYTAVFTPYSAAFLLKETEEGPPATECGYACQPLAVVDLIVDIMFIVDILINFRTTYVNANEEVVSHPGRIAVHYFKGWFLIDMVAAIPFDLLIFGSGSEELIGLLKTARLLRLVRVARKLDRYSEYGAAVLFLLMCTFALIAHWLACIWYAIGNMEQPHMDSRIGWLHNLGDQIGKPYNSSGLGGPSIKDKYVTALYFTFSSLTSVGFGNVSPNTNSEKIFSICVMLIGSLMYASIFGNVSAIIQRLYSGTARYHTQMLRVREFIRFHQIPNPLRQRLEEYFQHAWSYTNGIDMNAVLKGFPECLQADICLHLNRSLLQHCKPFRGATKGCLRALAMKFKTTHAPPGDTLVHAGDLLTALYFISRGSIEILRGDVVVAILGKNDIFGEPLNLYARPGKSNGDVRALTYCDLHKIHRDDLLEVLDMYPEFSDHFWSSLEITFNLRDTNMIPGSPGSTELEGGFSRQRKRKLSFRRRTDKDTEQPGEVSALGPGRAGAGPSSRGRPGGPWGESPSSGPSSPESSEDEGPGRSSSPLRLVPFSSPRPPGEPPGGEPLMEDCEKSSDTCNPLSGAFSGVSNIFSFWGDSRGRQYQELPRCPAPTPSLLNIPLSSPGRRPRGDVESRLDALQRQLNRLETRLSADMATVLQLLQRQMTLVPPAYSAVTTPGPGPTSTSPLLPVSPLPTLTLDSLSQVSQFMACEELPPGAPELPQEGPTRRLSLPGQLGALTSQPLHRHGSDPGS
Sequence of Platelet-derived growth factor receptor beta (P09619 whole entry): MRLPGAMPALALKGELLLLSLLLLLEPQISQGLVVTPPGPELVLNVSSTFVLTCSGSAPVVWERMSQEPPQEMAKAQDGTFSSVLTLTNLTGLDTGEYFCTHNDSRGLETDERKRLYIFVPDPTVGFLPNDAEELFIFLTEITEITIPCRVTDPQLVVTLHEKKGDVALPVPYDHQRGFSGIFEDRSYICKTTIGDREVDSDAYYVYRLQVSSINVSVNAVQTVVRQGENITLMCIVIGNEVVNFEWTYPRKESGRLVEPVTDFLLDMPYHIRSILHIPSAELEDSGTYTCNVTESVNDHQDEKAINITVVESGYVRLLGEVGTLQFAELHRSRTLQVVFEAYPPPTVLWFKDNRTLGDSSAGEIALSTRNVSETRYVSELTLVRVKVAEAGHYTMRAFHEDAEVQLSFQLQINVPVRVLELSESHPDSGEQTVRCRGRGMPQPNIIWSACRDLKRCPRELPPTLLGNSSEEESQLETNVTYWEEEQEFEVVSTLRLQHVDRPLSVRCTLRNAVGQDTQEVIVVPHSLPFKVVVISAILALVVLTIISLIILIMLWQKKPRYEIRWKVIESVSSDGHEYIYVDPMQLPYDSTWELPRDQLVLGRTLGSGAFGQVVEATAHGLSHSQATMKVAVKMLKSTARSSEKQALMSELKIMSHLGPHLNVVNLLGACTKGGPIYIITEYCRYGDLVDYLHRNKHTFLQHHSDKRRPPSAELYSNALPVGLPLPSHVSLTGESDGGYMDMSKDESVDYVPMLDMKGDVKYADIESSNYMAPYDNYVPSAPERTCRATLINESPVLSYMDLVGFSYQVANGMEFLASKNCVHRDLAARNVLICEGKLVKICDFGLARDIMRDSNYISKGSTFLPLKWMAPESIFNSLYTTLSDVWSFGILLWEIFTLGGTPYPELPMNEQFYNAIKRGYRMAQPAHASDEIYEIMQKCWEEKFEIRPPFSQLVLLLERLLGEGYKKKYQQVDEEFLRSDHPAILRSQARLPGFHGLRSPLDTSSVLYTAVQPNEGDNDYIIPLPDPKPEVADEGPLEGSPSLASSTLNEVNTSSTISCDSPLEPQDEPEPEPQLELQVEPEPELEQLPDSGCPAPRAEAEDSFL
Sequence of Mast/stem cell growth factor receptor Kit (P10721 whole entry): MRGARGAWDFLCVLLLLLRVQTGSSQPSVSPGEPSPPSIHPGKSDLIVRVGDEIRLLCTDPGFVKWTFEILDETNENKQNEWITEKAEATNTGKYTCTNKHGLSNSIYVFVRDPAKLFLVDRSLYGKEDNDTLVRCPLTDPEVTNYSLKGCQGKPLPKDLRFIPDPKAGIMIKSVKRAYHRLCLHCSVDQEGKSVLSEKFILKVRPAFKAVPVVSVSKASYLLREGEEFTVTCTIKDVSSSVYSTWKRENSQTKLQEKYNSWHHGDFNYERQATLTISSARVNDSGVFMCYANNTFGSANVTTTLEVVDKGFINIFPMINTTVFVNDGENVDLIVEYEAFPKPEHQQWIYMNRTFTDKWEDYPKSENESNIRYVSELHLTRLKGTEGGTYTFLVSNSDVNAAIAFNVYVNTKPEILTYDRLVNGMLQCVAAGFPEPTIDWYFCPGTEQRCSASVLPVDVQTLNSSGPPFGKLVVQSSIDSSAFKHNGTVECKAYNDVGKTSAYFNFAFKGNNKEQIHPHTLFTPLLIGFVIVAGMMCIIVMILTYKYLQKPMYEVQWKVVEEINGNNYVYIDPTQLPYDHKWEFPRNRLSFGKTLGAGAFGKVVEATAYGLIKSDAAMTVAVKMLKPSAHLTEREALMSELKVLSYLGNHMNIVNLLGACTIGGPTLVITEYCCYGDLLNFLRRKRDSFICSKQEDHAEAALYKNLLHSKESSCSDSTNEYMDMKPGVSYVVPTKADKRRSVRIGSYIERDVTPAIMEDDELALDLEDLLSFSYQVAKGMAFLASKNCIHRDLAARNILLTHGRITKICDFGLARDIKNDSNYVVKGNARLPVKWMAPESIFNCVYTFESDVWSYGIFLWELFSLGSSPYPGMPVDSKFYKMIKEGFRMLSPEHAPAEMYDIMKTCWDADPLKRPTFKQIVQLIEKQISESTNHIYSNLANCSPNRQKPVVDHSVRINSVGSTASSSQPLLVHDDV

COC(=O)c1ccc2c(c1)NC(=O)/C2=C(\Nc1ccc(N2C(=O)CC[C@H]2CN2CCN(C)CC2)cc1)c1ccccc1
IC50 [1]: 4.3 nM

CN1CCN(CC(=O)N(C)c2ccc(N/C(=C3\C(=O)Nc4cc(-c5nnn(C)n5)ccc43)c3ccccc3)cc2)CC1
IC50 [1]: 13 nM

COC(=O)c1ccc2c(c1)NC(=O)/C2=C(\Nc1ccc(N2CCC(CN3CCN(C)CC3)C2=O)cc1)c1ccccc1 (stereo unspecified)
IC50 [1]: 45 nM

COC(=O)c1ccc2c(c1)NC(=O)/C2=C(\Nc1ccc(N(C)C(=O)CN2CCN(C)CC2)cc1)c1ccccc1 [NINTEDANIB]
IC50 [2]: 2.6 nM

COC(=O)c1ccc2c(c1)NC(=O)/C2=C(\Nc1ccc2c(c1)N(C(=O)Cn1cncn1)CC2)c1ccccc1
IC50 [1]: 15 nM | IC50 [2]: > 30 nM

CN1CCN(CC(=O)N(C)c2ccc(N/C(=C3\C(=O)Nc4cc(-c5ncon5)ccc43)c3ccccc3)cc2)CC1
IC50 [1]: 5.3 nM | Activity (Mus musculus [3]): Toxic

COC(=O)c1ccc2c(c1)NC(=O)/C2=C(\Nc1ccc(N2C(=O)CC[C@@H]2CN2CCN(C)CC2)cc1)c1ccccc1
IC50 [1]: 3.2 nM

COC(=O)c1ccc2c(c1)NC(=O)/C2=C(\Nc1ccc2c(c1)N(C(=O)CN1CCOCC1)CC2)c1ccccc1
IC50 [1]: 25 nM | half-life [4]: 4.3 h | half-life [5]: 4.8 h | half-life [6]: 3.3 h | AUC [7]: 17000 ng·h/mL | AUC [8]: 6410 ng·h/mL | AUC [9]: 2960 ng·h/mL | bioavailability [10]: 51% | bioavailability [11]: 68% | bioavailability [12]: 29% | Activity (Mus musculus [13]): Dose-dependent effect | IC50 [14]: 10 nM | Activity (Mus musculus [15]): Non-Toxic | IC50 [2]: > 30 nM

COC(=O)c1ccc2c(c1)NC(=O)/C2=C(\Nc1ccc2c(c1)N(C(=O)CN1CC(C)OC(C)C1)CC2)c1ccccc1 (stereo unspecified)
IC50 [1]: 91 nM | IC50 [2]: > 30 nM

CN1CCN(CC(=O)N(C)c2ccc(N/C(=C3\C(=O)Nc4cc(-c5ncno5)ccc43)c3ccccc3)cc2)CC1
IC50 [1]: 4.5 nM

COC(=O)c1ccc2c(c1)NC(=O)/C2=C(\Nc1ccc2c(c1)N(C(=O)Cn1cccn1)CC2)c1ccccc1
IC50 [1]: 24 nM | IC50 [2]: > 30 nM

CN1CCN(CC(=O)N(C)c2ccc(N/C(=C3\C(=O)Nc4cc(-n5nccn5)ccc43)c3ccccc3)cc2)CC1
IC50 [1]: 1.5 nM

CN1CCN(CC(=O)N(C)c2ccc(N/C(=C3\C(=O)Nc4cc(OC(F)(F)F)ccc43)c3ccccc3)cc2)CC1
IC50 [1]: 27 nM

COC(=O)c1ccc2c(c1)NC(=O)/C2=C(\Nc1ccc2c(c1)N(C(=O)CN(C)C)CC2)c1ccccc1
IC50 [1]: 15 nM

CN1CCN(CC(=O)N(C)c2ccc(N/C(=C3\C(=O)Nc4cc(-c5cnco5)ccc43)c3ccccc3)cc2)CC1
IC50 [1]: 34 nM

CN1CCN(CC(=O)N(C)c2ccc(N/C(=C3\C(=O)Nc4cc(-c5ccco5)ccc43)c3ccccc3)cc2)CC1
IC50 [1]: 12 nM

COC(=O)c1ccc2c(c1)NC(=O)/C2=C(\Nc1ccc(N2C(=O)CC[C@@H]2CN(C)C)cc1)c1ccccc1
IC50 [1]: 14 nM

COC(=O)c1ccc2c(c1)NC(=O)/C2=C(\Nc1ccc2c(c1)N(C(=O)CN1CCCC1=O)CC2)c1ccccc1
IC50 [1]: 19 nM | IC50 [2]: > 30 nM
